In US8889370B2, “Method of determining inhibitors of coagulation” (Siemens Healthcare Diagnostics Products GmbH, priority 2010, dated 2014):
Where two headings read alike, the source gives them in different places.

Target: T1, bovine thrombin (Bos taurus, UniProt P00735)
T1 construct: a lyophilized thrombin reagent consisting of bovine thrombin; purchased Siemens Healthcare Diagnostics (hirudin activity assay, thrombin reagent)
Test: Determination of the thrombin binding constant (Ki) of peptide aldehyde ligands, chromogenic assay with hirudin activity assay reagents, Dixon plot
Format: biochemical
Protocol: The kinetic data of the peptide aldehyde ligands were determined in chromogenic assay formats by measuring the rate of hydrolysis of chromogenic peptide substrates which compete with the peptide aldehyde ligands for binding to the active site of the particular enzyme, at various substrate concentrations and peptide aldehyde-ligand concentrations. The binding constant (Ki) was determined by a known method (Dixon, M., 1953, Biochem J, 55, 170-171).
The thrombin binding constant was determined using the reagents of the hirudin activity assay from Siemens Healthcare Diagnostics. The hirudin activity assay comprises a lyophilized thrombin reagent consisting of bovine thrombin, a heparin inhibitor and aprotinin, a lyophilized chromogenic substrate reagent with a concentration of 4 mmol/l tos-Gly-Pro-Arg-ANBA-IPA (tosylglycyl-L-propyl-arginyl-5-amino-2-nitrobenzoyliso-propylamide) after reconstitution. The thrombin reagent was reconstituted in buffer solution (trishydroxymethylamino-methane, NaCl, pH 8.2). Dilutions of the substrate reagent were prepared with deionized water. The peptide aldehyde ligands prepared according to example 1 were dissolved in water and used as sample. The B-r-G-R—H ligand was used in a concentration range from 26.1 to 0.815 μM. The B-f-P—R—H ligand was used in a concentration range from 26.1 to 0 μM. The assays were carried out automatically in a BCS® XP coagulation analyzer (Siemens Healthcare Diagnostics, Marburg, Germany).
A reaction mix was mixed together as follows:
30 μl of sample (peptide aldehyde ligand B-r-G-R—H or B-f-P—R—H),
150 μl of thrombin reagent,
50 μl of chromogenic substrate reagent (tos-Gly-Pro-Arg-ABNA-IPA).
The reaction rate in mE/min was determined on the basis of the increase in optical density of the reaction mix at a wavelength of 405 nm. For this, the optical density of the reaction mixes was determined in time intervals of from 15 to 40 seconds for the B-f-P—R—H peptide aldehyde ligand or 5-16 seconds for the B-r-G-R—H peptide aldehyde ligand.
Reversibly and irreversibly binding ligands can be distinguished by their reaction kinetics. Plotting 1/v, where v is the reaction rate, as a function of the ligand concentration (i) at a constant concentration (S) of a cleavable substrate produces a line. When using two or more different substrate concentrations (S1, S2 . . . SN), said lines intersect at a single point. The x axis value of this point corresponds to −Ki, with Ki corresponding to the binding constant, see, for example, Klebe, G., Wirkstoffdesign, 2nd edition, Spektrum Akademischer Verlag, Heidelberg, Germany, 2009, pages 52-62 and Dixon, M., 1953, Biochem J, 55, 170-171. With an irreversible inhibition, the curves meet at a single point on the x axis, which again corresponds to −Ki.

N=C(N)NCCC[C@@H](C=O)NC(=O)[C@@H]1CCCN1C(=O)[C@@H](Cc1ccccc1)NC(=O)CCC(=O)NCCCOCCOCCOCCCNC(=O)CCCC[C@@H]1SC[C@@H]2NC(=O)N[C@@H]21 [B-f-P-R-H, biotinyl-Ttds-D-Phe-Pro-Arg-H]
1/Reaction rate (CB-f-P-R-H 0.02038 μM, Csubstrate = 0.5 mM, not in the linear region, excluded from regression): 1.869 min/E | 1/Reaction rate (CB-f-P-R-H 0.02038 μM, Csubstrate = 2 mM): 0.4138 min/E | 1/Reaction rate (CB-f-P-R-H 0.02038 μM, Csubstrate = 4 mM): 0.3846 min/E | 1/Reaction rate (CB-f-P-R-H 0.04076 μM, Csubstrate = 0.5 mM, not in the linear region, excluded from regression): 1.747 min/E | 1/Reaction rate (CB-f-P-R-H 0.04076 μM, Csubstrate = 2 mM): 0.4247 min/E | 1/Reaction rate (CB-f-P-R-H 0.04076 μM, Csubstrate = 4 mM): 0.393 min/E | 1/Reaction rate (CB-f-P-R-H 0.08152 μM, Csubstrate = 0.5 mM): 1.565 min/E | 1/Reaction rate (CB-f-P-R-H 0.08152 μM, Csubstrate = 2 mM): 0.4594 min/E | 1/Reaction rate (CB-f-P-R-H 0.08152 μM, Csubstrate = 4 mM): 0.4143 min/E | 1/Reaction rate (CB-f-P-R-H 0.16304 μM, Csubstrate = 0.5 mM): 1.711 min/E | 1/Reaction rate (CB-f-P-R-H 0.16304 μM, Csubstrate = 2 mM): 0.521 min/E | 1/Reaction rate (CB-f-P-R-H 0.16304 μM, Csubstrate = 4 mM): 0.4395 min/E | 1/Reaction rate (CB-f-P-R-H 0.20380 μM, Csubstrate = 0.5 mM): 1.638 min/E | 1/Reaction rate (CB-f-P-R-H 0.20380 μM, Csubstrate = 2 mM): 0.5061 min/E | 1/Reaction rate (CB-f-P-R-H 0.20380 μM, Csubstrate = 4 mM): 0.4298 min/E | 1/Reaction rate (CB-f-P-R-H 0.32609 μM, Csubstrate = 0.5 mM): 2.382 min/E | 1/Reaction rate (CB-f-P-R-H 0.32609 μM, Csubstrate = 2 mM): 0.6613 min/E | 1/Reaction rate (CB-f-P-R-H 0.32609 μM, Csubstrate = 4 mM): 0.5012 min/E | 1/Reaction rate (CB-f-P-R-H 0.40761 μM, Csubstrate = 0.5 mM): 2.645 min/E | 1/Reaction rate (CB-f-P-R-H 0.40761 μM, Csubstrate = 2 mM): 0.7008 min/E | 1/Reaction rate (CB-f-P-R-H 0.40761 μM, Csubstrate = 4 mM): 0.5334 min/E | 1/Reaction rate (CB-f-P-R-H 0.65217 μM, Csubstrate = 0.5 mM): 4.162 min/E | 1/Reaction rate (CB-f-P-R-H 0.65217 μM, Csubstrate = 2 mM): 1.029 min/E | 1/Reaction rate (CB-f-P-R-H 0.65217 μM, Csubstrate = 4 mM): 0.6737 min/E | 1/Reaction rate (CB-f-P-R-H 0.81522 μM, Csubstrate = 0.5 mM): 4.775 min/E | 1/Reaction rate (CB-f-P-R-H 0.81522 μM, Csubstrate = 2 mM): 1.169 min/E | 1/Reaction rate (CB-f-P-R-H 0.81522 μM, Csubstrate = 4 mM): 0.7274 min/E | 1/Reaction rate (CB-f-P-R-H 1.30435 μM, Csubstrate = 0.5 mM): 7.175 min/E | 1/Reaction rate (CB-f-P-R-H 1.30435 μM, Csubstrate = 2 mM): 1.793 min/E | 1/Reaction rate (CB-f-P-R-H 1.30435 μM, Csubstrate = 4 mM): 0.9974 min/E | 1/Reaction rate (CB-f-P-R-H 1.63043 μM, Csubstrate = 0.5 mM): 8.491 min/E | 1/Reaction rate (CB-f-P-R-H 1.63043 μM, Csubstrate = 2 mM): 2.164 min/E | 1/Reaction rate (CB-f-P-R-H 1.63043 μM, Csubstrate = 4 mM): 1.183 min/E | 1/Reaction rate (CB-f-P-R-H 2.60870 μM, Csubstrate = 0.5 mM): 13.19 min/E | 1/Reaction rate (CB-f-P-R-H 2.60870 μM, Csubstrate = 2 mM): 3.37 min/E | 1/Reaction rate (CB-f-P-R-H 2.60870 μM, Csubstrate = 4 mM): 1.775 min/E | 1/Reaction rate (CB-f-P-R-H 3.26087 μM, Csubstrate = 0.5 mM): 15.77 min/E | 1/Reaction rate (CB-f-P-R-H 3.26087 μM, Csubstrate = 2 mM): 4.026 min/E | 1/Reaction rate (CB-f-P-R-H 3.26087 μM, Csubstrate = 4 mM): 2.13 min/E | 1/Reaction rate (CB-f-P-R-H 5.21739 μM, Csubstrate = 0.5 mM): 24.76 min/E | 1/Reaction rate (CB-f-P-R-H 5.21739 μM, Csubstrate = 2 mM): 6.165 min/E | 1/Reaction rate (CB-f-P-R-H 5.21739 μM, Csubstrate = 4 mM): 3.251 min/E | 1/Reaction rate (CB-f-P-R-H 6.52174 μM, Csubstrate = 0.5 mM): 32.28 min/E | 1/Reaction rate (CB-f-P-R-H 6.52174 μM, Csubstrate = 2 mM): 7.856 min/E | 1/Reaction rate (CB-f-P-R-H 6.52174 μM, Csubstrate = 4 mM): 4.089 min/E | 1/Reaction rate (CB-f-P-R-H 9.78261 μM, Csubstrate = 0.5 mM): 43.9 min/E | 1/Reaction rate (CB-f-P-R-H 9.78261 μM, Csubstrate = 2 mM): 11.18 min/E | 1/Reaction rate (CB-f-P-R-H 9.78261 μM, Csubstrate = 4 mM): 5.843 min/E | 1/Reaction rate (CB-f-P-R-H 13.04348 μM, Csubstrate = 0.5 mM): 59.12 min/E | 1/Reaction rate (CB-f-P-R-H 13.04348 μM, Csubstrate = 2 mM): 14.43 min/E | 1/Reaction rate (CB-f-P-R-H 13.04348 μM, Csubstrate = 4 mM): 7.611 min/E | 1/Reaction rate (CB-f-P-R-H 16.30435 μM, Csubstrate = 0.5 mM): 74.55 min/E | 1/Reaction rate (CB-f-P-R-H 16.30435 μM, Csubstrate = 2 mM): 18.09 min/E | 1/Reaction rate (CB-f-P-R-H 16.30435 μM, Csubstrate = 4 mM): 9.302 min/E | 1/Reaction rate (CB-f-P-R-H 26.08696 μM, Csubstrate = 0.5 mM): 121.7 min/E | 1/Reaction rate (CB-f-P-R-H 26.08696 μM, Csubstrate = 2 mM): 28.41 min/E | 1/Reaction rate (CB-f-P-R-H 26.08696 μM, Csubstrate = 4 mM): 14.59 min/E | Intersect of regression curve 1/reaction rate vs ligand concentration (Csubstrate 0.5 mM): 0.9175 min/E | Slope of regression curve 1/reaction rate vs ligand concentration (Csubstrate 0.5 mM): 4.5718 min/E μM | Intersect of regression curve 1/reaction rate vs ligand concentration (Csubstrate 2 mM): 0.04059 min/E | Slope of regression curve 1/reaction rate vs ligand concentration (Csubstrate 2 mM): 1.0812 min/E μM | Intersect of regression curve 1/reaction rate vs ligand concentration (Csubstrate 4 mM): 0.3497 min/E | Slope of regression curve 1/reaction rate vs ligand concentration (Csubstrate 4 mM): 0.5500 min/E μM | Ki (average of three Ki values, read-out: KiM average thrombin binding constant): 131 nM | Ki (intersection of regression curves Csubstrate 2 and 0.5 mM, read-out: Ki2&3 thrombin binding constant): 147 nM | Ki (intersection of regression curves Csubstrate 4 and 0.5 mM, read-out: Ki1&3 thrombin binding constant): 141 nM | Ki (intersection of regression curves Csubstrate 4 and 2 mM, read-out: Ki1&2 thrombin binding constant): 106 nM | binding of the peptide aldehyde with thrombin (reversible or irreversible) (intersections of regression curves not on the x axis): reversible
